{
  "source": "patent US20120041058A1",
  "about": "“COMPOSITION OF TRADITIONAL CHINESE MEDICINE FOR REDUCING BLOOD FAT AND PREPARATION METHOD THEREOF” (ANJI GREEN LIFE BIOTECH CO., LTD., priority 2009, published 2012)",
  "system": "acute high-lipid mouse model",
  "assay": "Acute high-lipid mouse model resulted from egg yolk emulsion injection: serum cholesterol and triglycerides",
  "format": "in vivo, ICR mice",
  "conditions": "for T-cho / Trig: ICR mice, oral 1 time/d for 14 d, blood 20 h after ip 75% egg yolk emulsion; for T-cho / Trig / Reduction rate of cholesterol / Reduction rate of triglyceride: dose 2 mg/mouse; for blood-lipid-lowering effect on the mouse model of high blood lipid caused by the egg yolk emulsion: after two weeks of oral administration, result in words; for Reduction rate of cholesterol / Reduction rate of triglyceride: vs model mouse group, 14 d",
  "experimental": "The Treatment Efficiency of Blood-Lipid-Lowering Traditional Chinese Medicine Compositions Having Different Component Proportions on the Acute High-Lipid Mouse Models Resulted from Egg Yolk Emulsion Injection Male ICR mice of 20 g˜22 g are divided into several groups after 5 d adaptive feeding: control group, fed with normal saline; model group, fed with normal saline; positive control group, fed with Xuezhikang of 1000 mg/kg.",
  "data": [
    {"molecule": "C[C@H]1[C@H](C)CC[C@]2(C(=O)O)CC[C@]3(C)C(=CC[C@@H]4[C@@]5(C)CC[C@H](O)C(C)(C)[C@@H]5CC[C@]43C)[C@H]12", "note": "[Ursolic acid, ursolic acid]", "values": [
      {"measurement": "T-cho", "value": "9.11 ± 1.49", "unit": "mmol/L"},
      {"measurement": "Trig", "value": "13.37 ± 3.63", "unit": "mmol/L"},
      {"measurement": "blood-lipid-lowering effect on the mouse model of high blood lipid caused by the egg yolk emulsion", "value": "neither ursolic acid nor artesunate had the blood-lipid-lowering effect"},
      {"measurement": "Reduction rate of cholesterol", "value": "−11.92", "unit": "%"},
      {"measurement": "Reduction rate of triglyceride", "value": "−30.82", "unit": "%"}
    ]},
    {"molecule": "C[C@H]1[C@H](OC(=O)CCC(=O)O)O[C@@H]2O[C@@]3(C)CC[C@H]4[C@H](C)CC[C@@H]1[C@@]24OO3", "note": "[Artesunate, artesunate]", "values": [
      {"measurement": "T-cho", "value": "8.32 ± 1.09", "unit": "mmol/L"},
      {"measurement": "Trig", "value": "10.72 ± 2.68", "unit": "mmol/L"},
      {"measurement": "blood-lipid-lowering effect on the mouse model of high blood lipid caused by the egg yolk emulsion", "value": "neither ursolic acid nor artesunate had the blood-lipid-lowering effect"},
      {"measurement": "Reduction rate of cholesterol", "value": "−2.21", "unit": "%"},
      {"measurement": "Reduction rate of triglyceride", "value": "−4.89", "unit": "%"}
    ]},
    {"molecule": "C[C@@H]1CC[C@H]2[C@@H](C)C(=O)O[C@@H]3O[C@@]4(C)CC[C@@H]1[C@]32OO4", "note": "[Artemisinin, artemisinin]", "values": [
      {"measurement": "T-cho", "value": "6.10 ± 3.20", "unit": "mmol/L"},
      {"measurement": "Trig", "value": "8.90 ± 4.00", "unit": "mmol/L"},
      {"measurement": "Reduction rate of cholesterol", "value": 25.1, "unit": "%"},
      {"measurement": "Reduction rate of triglyceride", "value": 12.9, "unit": "%"}
    ]}
  ]
}
